According to ChEMBL document CHEMBL4311992, “Discovery of 3-(((9H-purin-6-yl)amino)methyl)-4,6-dimethylpyridin-2(1H)-one derivatives as novel tubulin polymerization inhibitors for treatment of cancer” (Eur J Med Chem, 2019):
Active and inactive are the calls of the source. The calls are words filed in the database; no cut-off is given here.

Experiments:
[1] = test system: Hepatocyte growth factor receptor (Homo sapiens), P08581 [Y1230D]; assay: Inhibition of recombinant human MET A1209G/V1290L/Y1248D mutant (974 to end residues) assessed as residual activity at 10 uM using KKKGQEEEYVFIE as substrate measured after 40 mins in presence of [gamma33P]ATP by scintillation counting method
[2] = target: Serine/threonine-protein kinase ICK (Homo sapiens) (UniProt Q9UPZ9); assay: Inhibition of recombinant human ICK (1 to 312 residues) assessed as residual activity at 10 uM using RRRFRPASPLRGPPK as substrate measured after 40 mins in presence of [gamma33P]ATP by scintillation counting method
[3] = target: Serine/threonine-protein kinase TBK1 (Homo sapiens) (UniProt Q9UHD2); assay: Inhibition of recombinant full-length human TBK1 assessed as residual activity at 10 uM using KRRRALS(p)VASLPGL as substrate measured after 40 mins in presence of [gamma33P]ATP by scintillation counting method
[4] = target: Serine/threonine-protein kinase ULK3 (Homo sapiens) (UniProt Q6PHR2); assay: Inhibition of recombinant full-length human ULK3 assessed as residual activity at 10 uM using casein as substrate measured after 40 mins in presence of [gamma33P]ATP by scintillation counting method
[5] = target: Wee1-like protein kinase 2 (Homo sapiens) (UniProt P0C1S8); assay: Inhibition of recombinant full-length human WEE1b assessed as residual activity at 10 uM using LSNLYHQGKFLQTFCGSPLYRRR as substrate measured after 120 mins in presence of [gamma33P]ATP by scintillation counting method
[6] = target: Serine/threonine-protein kinase MAK (Homo sapiens) (UniProt P20794); assay: Inhibition of recombinant full-length human MAK assessed as residual activity at 10 uM using RRRFRPASPLRGPPK as substrate measured after 120 mins in presence of [gamma33P]ATP by scintillation counting method
Mus musculus = species: Mus musculus; assay: Inhibition of recombinant full-length mouse PI3K p110alpha/p85alpha assessed as residual activity at 10 uM using phosphatidylinositol-4, 5-bisphosphate as substrate measured after 40 mins by HTRF assay
HCT-116 = assay: Induction of apoptosis in human HCT116 cells assessed as increase in cleaved caspase9 expression measured after 48 hrs by Western blot analysis; format: functional, cell-based
[7] = target: BDNF/NT-3 growth factors receptor (Homo sapiens) (UniProt Q16620); assay: Inhibition of human TrkB (455 to end residues) using poly(Glu, Tyr) 4:1 as substrate measured after 40 mins in presence of [gamma33P]ATP by scintillation counting method; design: scale not given: the % may be the effect or the level left
SW-620 [8] = assay: Induction of apoptosis in human SW620 cells assessed as early apoptotic cells at 100 nM measured after 48 hrs by Annexin V-FITC/propidium iodide staining-based flow cytometry (reference value: 0.773%); format: functional
[9] = target: Protein kinase C delta type (Homo sapiens) (UniProt Q05655); assay: Inhibition of recombinant human PKCdelta (2 to end residues) assessed as residual activity at 10 uM using ERMRPRKRQGSVRRRV as substrate measured after 40 mins in presence of [gamma33P]ATP by scintillation counting method
[10] = test system: Mitogen-activated protein kinase 14 (Homo sapiens), Q16539 [T106M]; assay: Inhibition of recombinant full-length human SAPK2a T106M mutant assessed as residual activity at 10 uM using myelin basic protein as substrate measured after 40 mins in presence of [gamma33P]ATP by scintillation counting method
[11] = target: Serine/threonine-protein kinase PRP4 homolog (Homo sapiens) (UniProt Q13523); assay: Inhibition of human PRP4 (663 to end residues) using casein as substrate measured after 40 mins in presence of [gamma33P]ATP by scintillation counting method; design: scale not given: the % may be the effect or the level left
SW-620 [12] = assay: Cell cycle arrest in human SW620 cells assessed as up regulation of CyclinB1 expression up to 150 nM after 24 hrs by Western blot analysis; format: functional, cell-based
SW-620 [13] = assay: Induction of apoptosis in human SW620 cells assessed as late apoptotic cells at 50 nM measured after 48 hrs by Annexin V-FITC/propidium iodide staining-based flow cytometry (reference value: 1.8%); format: functional
[14] = target: Casein kinase I isoform epsilon (Homo sapiens) (UniProt P49674); assay: Inhibition of human CK1epsilon assessed as residual activity at 10 uM using KRRRALS(p)VASLPGL as substrate measured after 120 mins in presence of [gamma33P]ATP by scintillation counting method
[15] = target: cGMP-dependent protein kinase 2 (Homo sapiens) (UniProt Q13237); assay: Inhibition of recombinant full-length human PRKG2 assessed as residual activity at 10 uM using KKLRRTLSFAEPG as substrate measured after 40 mins in presence of [gamma33P]ATP by scintillation counting method
[16] = target: Mitogen-activated protein kinase 1 (Homo sapiens) (UniProt P28482); assay: Inhibition of human MAPK2 assessed as residual activity at 10 uM
[17] = test system: Phosphorylase b kinase gamma catalytic chain, liver/testis isoform (Homo sapiens), P15735 [F290L]; assay: Inhibition of recombinant human PhKgamma2 F290L mutant (1 to 301 residues) assessed as residual activity at 10 uM using KKLNRTLSFAEPG as substrate measured after 40 mins in presence of [gamma33P]ATP by scintillation counting method
[18] = target: Serine/threonine-protein kinase Nek7 (Homo sapiens) (UniProt Q8TDX7); assay: Inhibition of recombinant human NEK7 (2 to end residues) assessed as residual activity at 10 uM using FLAKSFGSPNRAYKK as substrate measured after 40 mins in presence of [gamma33P]ATP by scintillation counting method
[19] = target: Ephrin type-A receptor 4 (Homo sapiens) (UniProt P54764); assay: Inhibition of recombinant human EphA4 (601 to 892 residues) assessed as residual activity at 10 uM using poly(Glu, Tyr) 4:1 as substrate measured after 40 mins in presence of [gamma33P]ATP by scintillation counting method
[20] = target: Serine/threonine-protein kinase NLK (Homo sapiens) (UniProt Q9UBE8); assay: Inhibition of recombinant human NLK (121 to end residues) assessed as residual activity at 10 uM using myelin basic protein as substrate measured after 40 mins in presence of [gamma33P]ATP by scintillation counting method
[21] = target: Serine/threonine-protein kinase VRK2 (Homo sapiens) (UniProt Q86Y07); assay: Inhibition of human VRK2 (1 to 336 residues) using casein as substrate measured after 40 mins in presence of [gamma33P]ATP by scintillation counting method; design: scale not given: the % may be the effect or the level left
[22] = test system: Serine/threonine-protein kinase D1 (Homo sapiens), Q15139 [UNDEFINED MUTATION]; assay: Inhibition of recombinant full-length human PKCmu R135A mutant assessed as residual activity at 10 uM using KKLNRTLSVA as substrate measured after 40 mins in presence of [gamma33P]ATP by scintillation counting method
Sequence of Serine/threonine-protein kinase D1 (Homo sapiens), Q15139 [UNDEFINED MUTATION] (Q15139 whole entry, looked up, stated change not applied): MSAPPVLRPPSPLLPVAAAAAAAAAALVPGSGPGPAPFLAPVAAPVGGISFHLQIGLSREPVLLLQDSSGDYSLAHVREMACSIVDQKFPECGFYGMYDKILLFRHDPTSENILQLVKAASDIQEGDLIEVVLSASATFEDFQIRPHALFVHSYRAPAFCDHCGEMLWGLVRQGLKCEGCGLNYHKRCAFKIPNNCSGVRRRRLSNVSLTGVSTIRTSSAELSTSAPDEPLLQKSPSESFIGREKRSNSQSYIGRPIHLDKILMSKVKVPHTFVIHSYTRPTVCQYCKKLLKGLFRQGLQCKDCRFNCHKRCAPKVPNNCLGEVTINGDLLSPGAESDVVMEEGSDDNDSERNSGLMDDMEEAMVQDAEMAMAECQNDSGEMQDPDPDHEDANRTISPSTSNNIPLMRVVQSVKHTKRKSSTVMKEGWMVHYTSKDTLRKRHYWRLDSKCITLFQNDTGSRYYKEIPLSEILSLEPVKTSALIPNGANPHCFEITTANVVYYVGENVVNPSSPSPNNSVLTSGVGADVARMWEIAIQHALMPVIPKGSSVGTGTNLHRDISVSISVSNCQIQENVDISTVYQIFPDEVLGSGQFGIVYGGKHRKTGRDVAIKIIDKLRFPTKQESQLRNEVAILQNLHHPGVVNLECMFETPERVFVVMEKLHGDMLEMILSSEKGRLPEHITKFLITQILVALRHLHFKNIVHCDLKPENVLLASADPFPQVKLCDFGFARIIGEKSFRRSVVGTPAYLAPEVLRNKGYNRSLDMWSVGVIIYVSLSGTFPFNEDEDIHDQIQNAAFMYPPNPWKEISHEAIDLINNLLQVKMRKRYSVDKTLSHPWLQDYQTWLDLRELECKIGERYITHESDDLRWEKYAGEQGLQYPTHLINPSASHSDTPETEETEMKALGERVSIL

Sequence of cGMP-dependent protein kinase 2 (Homo sapiens) (Q13237 whole entry): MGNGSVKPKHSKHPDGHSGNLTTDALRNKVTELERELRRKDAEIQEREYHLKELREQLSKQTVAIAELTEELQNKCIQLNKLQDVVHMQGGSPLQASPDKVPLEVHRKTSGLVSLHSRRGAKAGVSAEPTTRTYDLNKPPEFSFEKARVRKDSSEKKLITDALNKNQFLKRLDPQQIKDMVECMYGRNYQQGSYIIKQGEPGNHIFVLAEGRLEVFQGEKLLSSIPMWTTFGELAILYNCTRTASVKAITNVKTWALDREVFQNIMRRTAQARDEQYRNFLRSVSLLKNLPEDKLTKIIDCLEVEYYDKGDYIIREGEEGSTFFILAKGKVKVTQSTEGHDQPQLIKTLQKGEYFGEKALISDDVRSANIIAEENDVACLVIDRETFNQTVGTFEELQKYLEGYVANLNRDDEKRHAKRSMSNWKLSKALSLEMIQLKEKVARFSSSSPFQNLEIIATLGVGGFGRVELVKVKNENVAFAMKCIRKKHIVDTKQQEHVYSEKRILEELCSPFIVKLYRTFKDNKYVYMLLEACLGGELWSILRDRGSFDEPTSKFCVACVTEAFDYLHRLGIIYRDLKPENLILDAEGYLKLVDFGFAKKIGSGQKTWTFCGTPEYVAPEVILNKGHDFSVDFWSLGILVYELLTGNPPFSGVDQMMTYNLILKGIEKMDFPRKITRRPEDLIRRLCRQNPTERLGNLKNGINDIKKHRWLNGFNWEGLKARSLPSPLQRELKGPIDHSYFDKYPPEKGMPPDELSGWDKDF
Sequence of Mitogen-activated protein kinase 1 (Homo sapiens) (P28482 whole entry, the tested form may be a part, canonical isoform): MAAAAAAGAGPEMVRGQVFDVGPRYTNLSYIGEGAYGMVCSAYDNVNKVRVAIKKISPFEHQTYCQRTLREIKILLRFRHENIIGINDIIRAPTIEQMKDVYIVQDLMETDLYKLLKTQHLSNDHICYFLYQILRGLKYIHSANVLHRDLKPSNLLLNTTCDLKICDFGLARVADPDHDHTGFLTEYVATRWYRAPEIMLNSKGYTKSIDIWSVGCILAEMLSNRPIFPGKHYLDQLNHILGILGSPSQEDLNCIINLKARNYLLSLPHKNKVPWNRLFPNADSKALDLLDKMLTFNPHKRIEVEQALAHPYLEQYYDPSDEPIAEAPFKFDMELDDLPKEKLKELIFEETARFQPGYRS
Sequence of Phosphorylase b kinase gamma catalytic chain, liver/testis isoform (Homo sapiens), P15735 [F290L] (P15735 whole entry F290L, the tested form may be a part, canonical isoform): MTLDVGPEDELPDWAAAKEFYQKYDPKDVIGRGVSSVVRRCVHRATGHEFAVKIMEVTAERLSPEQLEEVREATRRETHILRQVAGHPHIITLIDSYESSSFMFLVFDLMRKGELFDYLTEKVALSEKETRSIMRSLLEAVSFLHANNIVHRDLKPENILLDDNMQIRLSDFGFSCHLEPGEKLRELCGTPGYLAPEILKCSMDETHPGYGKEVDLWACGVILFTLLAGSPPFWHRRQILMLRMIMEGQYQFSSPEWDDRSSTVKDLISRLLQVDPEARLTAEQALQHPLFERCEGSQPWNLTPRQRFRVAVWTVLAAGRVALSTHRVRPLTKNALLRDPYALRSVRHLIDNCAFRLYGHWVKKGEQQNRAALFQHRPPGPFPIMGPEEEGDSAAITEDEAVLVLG
Sequence of Serine/threonine-protein kinase TBK1 (Homo sapiens) (Q9UHD2 whole entry): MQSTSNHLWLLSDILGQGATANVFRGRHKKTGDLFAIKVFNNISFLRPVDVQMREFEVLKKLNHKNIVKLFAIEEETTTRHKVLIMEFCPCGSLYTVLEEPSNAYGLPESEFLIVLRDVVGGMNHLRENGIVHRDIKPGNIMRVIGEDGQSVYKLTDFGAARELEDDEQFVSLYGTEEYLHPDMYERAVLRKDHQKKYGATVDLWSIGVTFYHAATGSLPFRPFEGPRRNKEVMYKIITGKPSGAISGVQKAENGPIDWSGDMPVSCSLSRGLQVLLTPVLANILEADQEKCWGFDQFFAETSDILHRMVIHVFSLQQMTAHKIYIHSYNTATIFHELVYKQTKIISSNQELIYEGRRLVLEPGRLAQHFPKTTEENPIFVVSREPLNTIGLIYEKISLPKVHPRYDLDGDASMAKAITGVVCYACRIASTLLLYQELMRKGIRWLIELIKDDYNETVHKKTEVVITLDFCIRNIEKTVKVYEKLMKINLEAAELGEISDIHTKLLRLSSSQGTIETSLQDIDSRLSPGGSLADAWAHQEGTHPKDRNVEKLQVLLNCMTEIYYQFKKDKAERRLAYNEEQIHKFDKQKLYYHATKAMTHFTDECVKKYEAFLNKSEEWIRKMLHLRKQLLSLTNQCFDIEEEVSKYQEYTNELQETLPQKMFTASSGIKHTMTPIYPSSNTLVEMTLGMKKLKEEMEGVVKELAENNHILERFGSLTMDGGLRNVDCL
Sequence of Serine/threonine-protein kinase VRK2 (Homo sapiens) (Q86Y07 whole entry, the tested form may be a part): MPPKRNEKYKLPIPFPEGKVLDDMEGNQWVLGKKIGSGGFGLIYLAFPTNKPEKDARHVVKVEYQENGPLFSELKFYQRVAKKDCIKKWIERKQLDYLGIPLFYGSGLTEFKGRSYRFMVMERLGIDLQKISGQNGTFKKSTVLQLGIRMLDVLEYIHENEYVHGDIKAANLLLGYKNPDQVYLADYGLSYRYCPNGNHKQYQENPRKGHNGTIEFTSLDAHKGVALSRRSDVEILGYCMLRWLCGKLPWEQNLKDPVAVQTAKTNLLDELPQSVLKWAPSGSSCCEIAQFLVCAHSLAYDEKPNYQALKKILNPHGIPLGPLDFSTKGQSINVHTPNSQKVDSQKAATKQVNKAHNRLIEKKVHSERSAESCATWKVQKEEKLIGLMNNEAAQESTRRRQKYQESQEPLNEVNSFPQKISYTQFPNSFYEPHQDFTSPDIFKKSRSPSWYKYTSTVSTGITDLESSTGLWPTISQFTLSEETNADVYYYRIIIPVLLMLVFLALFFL
Sequence of Mitogen-activated protein kinase 14 (Homo sapiens), Q16539 [T106M] (Q16539 whole entry T106M): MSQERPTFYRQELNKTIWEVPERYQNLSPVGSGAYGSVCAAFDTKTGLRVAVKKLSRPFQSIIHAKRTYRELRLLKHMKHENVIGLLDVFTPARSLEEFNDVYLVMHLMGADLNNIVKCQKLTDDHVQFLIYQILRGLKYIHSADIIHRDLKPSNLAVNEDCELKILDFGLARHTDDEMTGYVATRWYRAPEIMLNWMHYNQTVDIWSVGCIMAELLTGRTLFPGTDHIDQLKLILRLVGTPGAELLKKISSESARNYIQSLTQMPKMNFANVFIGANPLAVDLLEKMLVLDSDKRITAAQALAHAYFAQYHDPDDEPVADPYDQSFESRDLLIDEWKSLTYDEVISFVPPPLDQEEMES
Sequence of Ephrin type-A receptor 4 (Homo sapiens) (P54764 whole entry, the tested form may be a part): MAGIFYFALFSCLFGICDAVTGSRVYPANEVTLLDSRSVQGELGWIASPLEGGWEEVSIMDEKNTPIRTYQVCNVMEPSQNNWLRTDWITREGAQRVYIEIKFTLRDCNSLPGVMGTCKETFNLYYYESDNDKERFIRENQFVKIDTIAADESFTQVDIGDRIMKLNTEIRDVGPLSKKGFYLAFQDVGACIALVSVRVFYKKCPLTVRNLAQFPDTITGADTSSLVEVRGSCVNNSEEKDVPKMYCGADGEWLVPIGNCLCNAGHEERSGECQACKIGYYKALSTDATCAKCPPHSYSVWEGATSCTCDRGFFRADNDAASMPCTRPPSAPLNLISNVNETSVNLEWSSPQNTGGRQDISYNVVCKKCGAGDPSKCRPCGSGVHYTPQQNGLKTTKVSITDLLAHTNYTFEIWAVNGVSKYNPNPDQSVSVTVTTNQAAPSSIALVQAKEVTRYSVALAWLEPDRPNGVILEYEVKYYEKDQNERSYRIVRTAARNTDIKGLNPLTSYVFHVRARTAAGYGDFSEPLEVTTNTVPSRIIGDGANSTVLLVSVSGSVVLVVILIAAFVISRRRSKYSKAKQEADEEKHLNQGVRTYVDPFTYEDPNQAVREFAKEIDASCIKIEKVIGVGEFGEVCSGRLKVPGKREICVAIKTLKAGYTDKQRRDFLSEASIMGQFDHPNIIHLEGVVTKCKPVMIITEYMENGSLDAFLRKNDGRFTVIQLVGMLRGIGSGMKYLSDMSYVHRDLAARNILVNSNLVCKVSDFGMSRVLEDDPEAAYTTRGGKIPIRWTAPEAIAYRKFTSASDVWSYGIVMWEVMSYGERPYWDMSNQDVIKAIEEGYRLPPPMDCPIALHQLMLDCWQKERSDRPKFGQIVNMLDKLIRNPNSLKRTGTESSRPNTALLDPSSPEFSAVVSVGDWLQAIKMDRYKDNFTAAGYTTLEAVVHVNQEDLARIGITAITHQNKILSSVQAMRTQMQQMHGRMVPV

Cc1cc(C)c(CNc2nc(Cl)nc3c2ncn3C2CCCC2)c(=O)[nH]1
Activity [1]: 102% | Activity [2]: 114% | Activity [3]: 99.5% | Activity [4]: 102% | Activity [5]: 95% | Activity [6]: 106% | Activity (Mus musculus): 99.5% | Activity (HCT-116): Dose-dependent effect | Activity [7]: 126% | Activity (SW-620 [8]): 3.55% | Activity [9]: 111% | Activity [10]: 100% | Activity [11]: 93% | Activity (SW-620 [12]): Active | Activity (SW-620 [13]): 9.24% | Activity [14]: 100% | Activity [15]: 98% | Activity [16]: 104% | Activity [17]: 92% | Activity [18]: 106% | Activity [19]: 100% | Activity [20]: 93.5% | Activity [21]: 102% | Activity [22]: 103%
